For one series, the system named is mouse pancreatic islets. Briefly: Proinsulin disulfide-linked / HMW complexes in murine islets, SDS-PAGE immunoblot (CCI-17). It is filed as cell-based. As for the experimental part:
Mouse pancreatic islet isolation: Mice were euthanized by CO2 narcosis as per an approved institutional animal protocol. The pancreas was rapidly excised, minced in ice-cold PBS, and digested in 4 mL of Collagenase P (Roche) 1.5 mg/mL in Hank's Balanced Salt Solution containing calcium and magnesium, in a shaking water bath for 30 min at 37° C. The digestion was terminated in 40 mL ice-cold PBS (—Ca/—Mg) and the digested tissue washed twice in this buffer. The sedimented tissue digest was then overlaid with 3 mL Histopaque-1077 and further overlayed with 6 mL ice cold PBS (—Ca/—Mg) before centrifugation (3000 rpm for 20 min at 10° C. with no brake) and transfer of the midlayer of the Histopaque gradient to a 15 ml tube for two further washes in ice-cold PBS. Finally, the sedimented tissue was transferred to a petri dish in ice-cold RPMI-1640 buffer and islets hand-picked to purity. In experiments involving drug or compound treatment, the islets were finally recovered overnight in RPMI-1640 supplemented with 10% fetal bovine serum (FBS), 10 mM HEPES pH 7.35, 1 mM sodium pyruvate and 0.05 mM beta-mercaptoethanol, in a humidified 5% CO2 incubator at 37° C. For some experiments, islets were snap frozen in liquid nitrogen and stored frozen prior to analysis.
(§1) Lysis of cells or islets for SDS-PAGE and electrotransfer: After removal of media, cells were washed once with ice-cold PBS and lysed in RIPA buffer (10 mM Tris pH 7.4, 150 mM NaCl, 0.1% SDS, 1% NP40, 2 mM EDTA) plus protease inhibitor/phosphatase inhibitor cocktail (Sigma-Aldrich) or directly in Laemmli gel sample buffer. Lysates in RIPA buffer were immediately spun at 10,000 rpm for 10 min at 4° C. and the supernatants analyzed further or stored at −80° C. Islets that had been quick frozen were placed on ice and RIPA buffer containing protease inhibitor cocktail and phosphatase inhibitor was added. Lysis was carried out by gently pipetting or by syringe through a 30G needle. Total protein concentration in the lysate was determined by BCA or Bramhall assay, and 5-10 μg of samples prepared in SDS sample were resolved by SDS-PAGE in 4-12% Bis-Tris NuPAGE gels (Invitrogen) at 200 V for 30 min. Nonreducing gels were incubated in a solution containing 20 mM dithiothreitol (DTT) for 10 min at room temperature prior to electrotransfer.
(§2) Immunoblotting: Transfer membranes were rinsed once in TBST (15 mM Tris, 150 mM NaCl, 0.1% Tween-20), blocked using TST plus 5% BSA for 1 h at room temperature, and then washed four times (5 min each) in TBST. Primary antibody and secondary antibodies were diluted in TBST and each of […] incubations was 1 h at room temperature followed by 4 washes in TBST. On occasion, primary antibodies were incubated overnight at 4° C. Secondary antibodies were all HRP-conjugates. Development of immunoblots used enhanced chemiluminescence (Immobilon, Millipore, or SuperSignal West Pico PLUS, Thermo Fisher Scientific) with images captured using a Fotodyne gel imager.
Islet Isolation: Islets were isolated by collagenase P (Roche) perfusion as described following by histopaque-1077 (Sigma-Aldrich, Inc. St. Louis) gradient purification. Islets were handpicked and studied directly or after overnight culture in RPMI 1640 medium (Corning 10-040-CV) supplemented with 10% FBS, 1% penicillin/streptomycin, 100 μg/m1 primocin, 10mM Hepes, and 1mM sodium pyruvate.
Islet Western Blotting: Isolated islets were lysed in RIPA buffer (10 mM Tris pH 7.4, 150 mM NaCl, 0.1% SDS, 1% NP-40, 2mM EDTA) with protease and phosphatase inhibitors (Fisher Scientific) on ice for 10 min and lysates were collected after centrifugation at 4° C. for 10 min at 12000 g. Samples were prepared in Laemmli sample buffer without (non-reducing) or with (reducing) 5% β-mercaptoethanol. After boiling for 5 min, samples were analyzed by SDS-PAGE (4-12% Bis-Tris gel, (Bio-Rad Laboratories, Inc.)) and transferred to nitrocellulose membranes (Bio-Rad Laboratories, Inc.). […]

The test system of another series is INS1E cells. Briefly: Proinsulin disulfide-linked complexes in INS1E cells, nonreducing/reducing SDS-PAGE and immunoblotting (mAb CCI-17). It is filed as cell-based, rat. The following applies: INS1E cells. As for the experimental part:
HEK293T human cells lines were cultured in DMEM supplemented with 10% FBS and penicillin/streptomycin.
as §1, with “Islets that had been quick frozen were placed on ice and RIPA buffer containing protease inhibitor cocktail and phosphatase inhibitor was added.” left out, “Total protein concentration in the lysate was determined by BCA or Bramhall assay, and 5-10 μg of samples prepared in SDS sample were resolved by SDS-PAGE in 4-12% Bis-Tris NuPAGE gels (Invitrogen) at 200 V for 30 min.” left out
The lane was then laid horizontally on top of a 10% SDS-polyacrylamide resolving gel and sealed in place in stacking gel. A single-tooth comb was introduced at one end of the stacking gel to introduce a one-dimensional reduced sample of proinsulin containing cell lysate (which runs as proinsulin monomer). The gel was run at 200 V for 45 mins in Tris-Glycine buffer pH 8.8 with electrotransfer as described above.
as §2
A general note: Immunoblotting shows a protein as a band on a membrane.

The subject of another series is islets. Briefly: Analysis of oxidative stress in islets (CellROX Deep Red, Hoechst 33342). The following applies: islets after 30 wks HFD, menadione 10 μM, 3 h. It is filed as cell-based, mouse. As for the experimental part:
Analysis of Oxidative Stress: Islets were plated onto CellCarrier™-96 ultra microplates (Perkin Elmer) in phenol red-free RPMI 1640 medium supplemented with 10% FBS, 1% penicillin/streptomycin, 100 μg/ml primocin, 10mM Hepes, and 1 mM sodium pyruvate one day prior to staining. Islets were treated with menadione (AdipoGen Life Science, 10 μM) for 3 h at 37° C. Islets were stained with CellROX® Deep Red reagent (Molecular Probes, C10422, 100 μM) and Hoechst 33342 (Invitrogen, 10 μg/ml) for 1 h at the same time. Islets were washed three times with HBSS and incubated in HBSS for imaging while temperature and CO2 were controlled. […]
Because ER stress is linked with oxidative stress, the inventors tested whether Pdia1 deletion confers increased sensitivity to oxidants by treating islets (isolated after 30 wks of HFD) with the vitamin K analogue menadione, which can render cells susceptible to apoptosis by increasing cytosolic calcium with nuclear condensation. […] In FIG. 21B, quantification of ROS mean intensity is shown. CellROX Deep Red mean intensity (divided by area) was measured by image J software. […] In FIG. 21C, quantification of nuclear mean area (μm^2) measured in Hoechst 33342 stained images by ImageJ software is shown. […] Quantification of the ratio of HMW proinsulin complexes (a) to monomeric proinsulin under reducing conditions is shown in graph (lower). […]

In series [1] the test system is proinsulin complex formation. Briefly: Inhibition of ER to Golgi trafficking: proinsulin disulfide linked HMW complex formation. The following applies: BFA treatment; with or without cycloheximide. It is filed as cell-based. As for the experimental part: Also, it is contemplated that increased proinsulin synthesis predisposes to oligomer and HMW complex formation. To test the notion that increased proinsulin expression, as in T2D, may exacerbate abnormal disulfide formation, the effect of brefeldin A (BFA), which promotes retrograde COP1 trafficking from the cis-Golgi to the ER to prevent export of secretory proteins to the Golgi, and thus increasing their concentration in the ER, was tested.

[2] abbreviates: islets, NEM treatment to alkylate free sulfhydryls.

Experimental findings from patent US20220299532A1, “CORRECTING PROTEIN MISFOLDING IN DIABETES” (Sanford Burnham Prebys Medical Discovery Institute, priority 2019, published 2022) are described below.

Molecules are shown by their SMILES.

For the compound `CCN1C(=O)C=CC1=O` [N-ethylmaleimide], in the series on mouse pancreatic islets (setting [2]), the HMW proinsulin-containing complexes entry was “slightly increased the HMW proinsulin-containing complexes” and the disulfide-linked proinsulin oligomers result is reported as “slightly reduced the disulfide-linked oligomers”. In the case of `CC(C)NCCCn1c(Sc2cc(Cl)cc(Cl)c2)nc2c(N)ncnc21` [PU-WS13], in the series with INS1E cells (PU-WS13 20 μM 24 h, SubAB during last 3 h), the “proinsulin disulfide-linked complex formation triggered by acute loss of BiP” value is recorded as “did not exacerbate the proinsulin disulfide-linked complex formation”. In addition, the “proinsulin disulfide-linked complex formation” value in the series on INS1E cells (PU-WS13 20 μM, 24 h) is listed as “did not promote proinsulin disulfide-linked complex formation”. Turning to `C#CCNc1nc(NCCNC(=O)CCl)nc(N(C)CCCCc2ccccc2)n1` [KSC-34], the “HMW proinsulin complexes, combination with menadione” value in the series with mouse pancreatic islets (WT murine islets, KSC-34 3 h then menadione 100 μM 1 h) is “recapitulated the effect of Pdia1 deletion upon menadione treatment”. Besides, the HMW proinsulin complexes entry in the series with mouse pancreatic islets (WT murine islets, KSC-34 alone, 3 h) is listed as “slightly increased HMW complexes”.

For `CC1=CC(=O)c2ccccc2C1=O` [menadione], the “HMW proinsulin complexes (49-198 kDa), increase by Pdia1 deletion vs WT islets” value with mouse pancreatic islets (islets after 37 wks HFD, menadione 100 μM, 1 h) is reported as “this effect was even greater in islets treated with menadione”. For the same compound, in the series with islets, the “ROS (CellROX Deep Red stain)” value was “significantly increased ROS” and the “nuclear size (Hoechst 33342)” value is “promoted nuclear condensation”. On to `C[C@H]1CCC/C=C/[C@@H]2C[C@H](O)C[C@H]2[C@H](O)/C=C/C(=O)O1` [BFA, brefeldin A], for which the proinsulin complex formation entry in series [1] is “significantly increased proinsulin complex formation”.

With `C[C@@H]1C[C@@H]([C@H](O)CC2CC(=O)NC(=O)C2)C(=O)[C@@H](C)C1` [cycloheximide], the proinsulin complex formation entry in series [1] is “did not significantly affect the results”.
